Reference: ChEMBL document CHEMBL4483862, “Open-source discovery of chemical leads for next-generation chemoprotective antimalarials” (2018)

Tested on: Plasmodium berghei
Assay: Luciferase/luciferin-expressing antifolate-resistant parasites were used to infect a culture of HepG2 cells that were pre-incubated with compounds. Infected hepatocytes emit light due to the luciferase reaction. Assay results are presented as the percent inhibition of light emission compared to control. […]
Assay type: functional
Conditions: sporozoite; for IC90: read-out: LUCIFERASE INFECTION ASSAY - IC90
[1] = read-out: LUCIFERASE INFECTION ASSAY - IC50

SMILES	IC90	also measured
Cc1ccc(C)c(Sc2ccc(NC(=O)CN3C(=O)NC(Cc4ccccc4)C3=O)cc2)c1 (stereo not given)	> 10 µM	IC50 (PBLUC_HILL_SLOPE 1.97, PBLUC_R_SQUARED 0.872, read-out: LUCIFERASE INFECTION ASSAY - IC50): 5.94 µM
CC(C)NC(=O)c1c(NC(=O)c2cccc(F)c2)nc2ccccn12	7.41 µM	IC50 (HEPG2TOX_HILL_SLOPE 3.53, HEPG2TOX_R_SQUARED 0.8, PBLUC_HILL_SLOPE 29.8, PBLUC_R_SQUARED 0.0967, read-out: LUCIFERASE INFECTION ASSAY - IC50): 6.88 µM
Nc1c(C(=O)Nc2cccc(Cl)c2)sc2nc3c(c(-c4cccnc4)c12)CCC3	> 7.84 µM	IC50 (FFLUC_HILL_SLOPE 1.24, FFLUC_R_SQUARED 0.605, PBLUC_HILL_SLOPE 2.61, PBLUC_R_SQUARED 0.023, read-out: LUCIFERASE INFECTION ASSAY - IC50): > 7.84 µM
N#Cc1ccc(Nc2nc(C(F)(F)F)nc3ccccc23)cc1	5.09 µM	IC50 (HEPG2TOX_HILL_SLOPE 12.3, HEPG2TOX_R_SQUARED 0.755, PBLUC_HILL_SLOPE 4.38, PBLUC_R_SQUARED 0.727, read-out: LUCIFERASE INFECTION ASSAY - IC50): 3.08 µM
CNc1ccccc1C(C)(C)c1cc(-c2ccc(F)cc2)no1	> 10 µM	IC50 [1]: 8.62 µM
N#Cc1ccc(C(=O)C(C#N)c2nc(-c3ccc(F)cc3)cs2)cc1 (stereo not given)	3.83 µM	IC50 (PBLUC_HILL_SLOPE 17.7, PBLUC_R_SQUARED 0.0264, read-out: LUCIFERASE INFECTION ASSAY - IC50): 3.38 µM
Cc1ccc(C(C)C)c(OCc2ccc(C(=O)N/N=C/c3cc(C)n(Cc4ccco4)c3C)cc2)c1	> 10 µM	IC50 [1]: > 10 µM
O=C(CN1C(=O)c2cccc([N+](=O)[O-])c2C1=O)OCC(=O)N1CCC(Cc2ccccc2)CC1	> 10 µM	IC50 [1]: > 10 µM
Cc1ccc(Cn2nc(C)c(C(=O)Nc3nc4c(s3)CCCC4)c2Cl)cc1	> 10 µM	IC50 (PBLUC_HILL_SLOPE 15.7, PBLUC_R_SQUARED 0.159, read-out: LUCIFERASE INFECTION ASSAY - IC50): 9.13 µM
Cc1[nH]c2c(F)cc(F)cc2c(=O)c1I	9.47 µM	IC50 (PBLUC_HILL_SLOPE 4.58, PBLUC_R_SQUARED 0.0894, read-out: LUCIFERASE INFECTION ASSAY - IC50): 5.86 µM
O=C(c1cnn(C(=O)c2nn(-c3ccc(Cl)cc3)cc2O)c1)c1ccccc1O	3.83 µM	IC50 (HEPG2TOX_HILL_SLOPE 0.890, 1.11, HEPG2TOX_R_SQUARED 0.813, 0.357, PBLUC_HILL_SLOPE 9.04, 15.6, PBLUC_R_SQUARED 0.0255, 0.659, read-out: LUCIFERASE INFECTION ASSAY - IC50): 3.15 µM
OC(c1ccc(Cl)cc1)c1nnc(Nc2cc(C(F)(F)F)ccc2F)s1 (stereo not given)	> 10 µM	IC50 [1]: > 10 µM
CNCCCNCc1cccc(OC)c1OCc1ccc(Cl)cc1	> 9.46 µM	IC50 (PBLUC_HILL_SLOPE 9.3, PBLUC_R_SQUARED 0.597, read-out: LUCIFERASE INFECTION ASSAY - IC50): 8.76 µM
COc1ccc(C(=O)Nc2ccc3nc(-c4cc(OC)c(OC)c(OC)c4)nn3c2)cc1OC	4.55 µM	IC50 (PBLUC_HILL_SLOPE 1.61, PBLUC_R_SQUARED 0.589, read-out: LUCIFERASE INFECTION ASSAY - IC50): 1.17 µM
C=CCN(C(=O)c1cccc(C)c1[N+](=O)[O-])c1nc2c(s1)CCCC2	> 10 µM	IC50 (PBLUC_HILL_SLOPE 3.27, PBLUC_R_SQUARED 0.266, read-out: LUCIFERASE INFECTION ASSAY - IC50): 9.32 µM
CC(C)CN1C(=O)N(CCCc2cccnc2)C(=O)C12CCN(C(C)CCc1ccccc1)CC2 (stereo not given)	> 6.92 µM	IC50 (PBLUC_HILL_SLOPE 2.19, PBLUC_R_SQUARED 0.623, read-out: LUCIFERASE INFECTION ASSAY - IC50): 3.61 µM
O=C(CN1CCn2cccc2C1c1ccccc1)N1CCc2sccc2C1 (stereo not given)	4.34 µM	IC50 (PBLUC_HILL_SLOPE 14, PBLUC_R_SQUARED 0.298, read-out: LUCIFERASE INFECTION ASSAY - IC50): 3.71 µM
CCCNC(=O)c1c(NC(=O)c2ccc(F)cc2F)nc2ccc(C)cn12	3.51 µM	IC50 (HEPG2TOX_HILL_SLOPE 5.63, HEPG2TOX_R_SQUARED 0.519, PBLUC_HILL_SLOPE 14, PBLUC_R_SQUARED 0.432, read-out: LUCIFERASE INFECTION ASSAY - IC50): 2.99 µM
Cc1ccc2nc(NC(=O)C3CCCC3)c(C(=O)NC3CCCC3)n2c1	> 9.31 µM	IC50 [1]: > 9.31 µM
COc1cc(CNCc2ccc3c(c2)OCO3)ccc1OCc1ccc(F)cc1	> 8.35 µM	IC50 (PBLUC_HILL_SLOPE 2.11, PBLUC_R_SQUARED 0.727, read-out: LUCIFERASE INFECTION ASSAY - IC50): 5.34 µM

SMILES	IC90	also measured
O=C(Nc1cccc(NC(=O)c2ccccc2Nc2ccccc2)c1)c1ccco1	> 10 µM	IC50 (PBLUC_HILL_SLOPE 2.3, PBLUC_R_SQUARED 0.121, read-out: LUCIFERASE INFECTION ASSAY - IC50): 5.43 µM
COc1cccc(-c2[nH]nc3ccnc(-c4ccc(C(C)C)cc4)c23)c1	> 10 µM	IC50 (FFLUC_HILL_SLOPE 13.2, FFLUC_R_SQUARED 0.418, read-out: LUCIFERASE INFECTION ASSAY - IC50): > 10 µM
CCOc1ccc(C=C(c2nc3ccccc3s2)c2nc3ccccc3s2)cc1OC	4.51 µM	IC50 (HEPG2TOX_HILL_SLOPE 4.58, HEPG2TOX_R_SQUARED 0.874, PBLUC_HILL_SLOPE 9.07, PBLUC_R_SQUARED 0.629, read-out: LUCIFERASE INFECTION ASSAY - IC50): 3.54 µM
COc1ccc(OC)c(CCNc2nc3cnc(-c4ccccc4C)cc3n2C)c1	0.0474 µM	IC50 (HEPG2TOX_HILL_SLOPE 0.343, HEPG2TOX_R_SQUARED 0.532, PBLUC_HILL_SLOPE 5.82, PBLUC_R_SQUARED 0.631, read-out: LUCIFERASE INFECTION ASSAY - IC50): 0.0325 µM
Cc1c(C(=O)OCC(=O)/C=C2\N(C)c3ccccc3C2(C)C)sc2nc3n(c(=O)c12)CCC3	> 10 µM	IC50 [1]: > 10 µM
CO/N=C1\CC(C)(C)Cc2c(-c3ccn(S(=O)(=O)c4ccc(Cl)cc4)n3)sc(SC)c21	> 6.65 µM	IC50 (FFLUC_HILL_SLOPE 0.891, FFLUC_R_SQUARED 0.151, read-out: LUCIFERASE INFECTION ASSAY - IC50): > 6.65 µM
CC12CC3CC(C1)CC(c1ccc(O)cc1)(C3)C2	> 10 µM	IC50 [1]: > 10 µM
CC(C)(C)c1ccc(NC(=O)c2ccc[nH]c2=S)cc1	0.656 µM	IC50 (PBLUC_HILL_SLOPE 0.943, PBLUC_R_SQUARED 0.946, read-out: LUCIFERASE INFECTION ASSAY - IC50): 0.0638 µM
C=CCn1c(-c2c(C)oc3ccccc23)cs/c1=N\S(=O)(=O)c1cccs1	> 10 µM	IC50 [1]: > 10 µM
O=C(COc1ccc2c3c(c(=O)oc2c1)CCC3)Nc1nc(-c2ccccn2)cs1	> 10 µM	IC50 (HEPG2TOX_HILL_SLOPE 8.22, HEPG2TOX_R_SQUARED 0.725, PBLUC_HILL_SLOPE 12.7, PBLUC_R_SQUARED 0.0522, read-out: LUCIFERASE INFECTION ASSAY - IC50): 9.13 µM
COc1ccc(-c2ccc3ncc(-c4ccc(NC(C)=O)cc4)n3n2)cc1OC	0.053 µM	IC50 (HEPG2TOX_HILL_SLOPE 0.646, HEPG2TOX_R_SQUARED 0.97, PBLUC_HILL_SLOPE 3.16, PBLUC_R_SQUARED 0.759, read-out: LUCIFERASE INFECTION ASSAY - IC50): 0.0264 µM
CCCCc1noc(C(C)Sc2nc(C(C)(C)C)nc3c2c(=O)n(C)c(=O)n3C)n1 (stereo not given)	> 10 µM	IC50 (HEPG2TOX_HILL_SLOPE 1.13, HEPG2TOX_R_SQUARED 0.608, PBLUC_HILL_SLOPE 1.15, PBLUC_R_SQUARED 0.641, read-out: LUCIFERASE INFECTION ASSAY - IC50): 3.92 µM
O=C(NNC(=S)Nc1ccc(Cl)c(Cl)c1)c1cccn1-c1ccc(F)cc1	5.78 µM	IC50 (FFLUC_HILL_SLOPE 12.7, FFLUC_R_SQUARED 0.0579, HEPG2TOX_HILL_SLOPE 1.8, HEPG2TOX_R_SQUARED 0.871, PBLUC_HILL_SLOPE 2.85, PBLUC_R_SQUARED 0.299, read-out: LUCIFERASE INFECTION ASSAY - IC50): 2.67 µM
COc1ccc(-n2nc(C)c3c(=O)cc(C(C)(C)C)[nH]c32)cc1	5.81 µM	IC50 (HEPG2TOX_HILL_SLOPE 1.9, HEPG2TOX_R_SQUARED 0.976, PBLUC_HILL_SLOPE 7.24, PBLUC_R_SQUARED 0.294, read-out: LUCIFERASE INFECTION ASSAY - IC50): 4.29 µM
Fc1cccc(-c2nc3ccnc(Nc4cccc(Oc5ccccc5)c4)c3[nH]2)c1	8.85 µM	IC50 (HEPG2TOX_HILL_SLOPE 4.02, HEPG2TOX_R_SQUARED 0.911, PBLUC_HILL_SLOPE 2.5, PBLUC_R_SQUARED 0.399, read-out: LUCIFERASE INFECTION ASSAY - IC50): 3.68 µM
Nc1ccc(C(OC(=O)c2ccc(Cl)cc2Cl)(C(F)(F)F)C(F)(F)F)cc1	> 10 µM	IC50 (PBLUC_HILL_SLOPE 1.55, PBLUC_R_SQUARED 0.496, read-out: LUCIFERASE INFECTION ASSAY - IC50): 8.08 µM
Brc1cc2c(cc1CSc1ncnc3ccccc13)OCO2	1.53 µM	IC50 (HEPG2TOX_HILL_SLOPE 1.93, HEPG2TOX_R_SQUARED 0.941, PBLUC_HILL_SLOPE 155, PBLUC_R_SQUARED 0.104, read-out: LUCIFERASE INFECTION ASSAY - IC50): 1.51 µM
O=C(CN1CCC(n2c(=O)[nH]c3ccccc32)CC1)NCCC1=CCCCC1	> 10 µM	IC50 [1]: > 10 µM
Fc1ccc(Nc2ncnc3c2cnn3Cc2ccc(Cl)cc2)cc1	9.37 µM	IC50 (PBLUC_HILL_SLOPE 4.8, PBLUC_R_SQUARED 0.59, read-out: LUCIFERASE INFECTION ASSAY - IC50): 5.93 µM
Cc1cc(CSc2nnc(CN3CCCCC3)n2-c2ccc(F)cc2)on1	> 10 µM	IC50 [1]: > 10 µM
